Laboratory results: patent publication US20070122810A1 (priority 2003, published 2007)
Like-named read-outs stand apart in the source and are kept apart here.

Test system: tumor cell suspension (glioma samples)
[1] = FIG. 5, example A, tumor located near normal brain tissue in phylogenetic tree, 8 hours incubation, about 1/10 of highest blood concentration
[2] = FIG. 5, example B, tumor located near normal brain tissue in phylogenetic tree, 8 hours incubation, about 1/10 of highest blood concentration

Experimental: These drugs were classified into five following categories by pharmacological mechanism. • Alkylating agents: • 4-hydroperoxy-cyclophosphamide (CPM)(1 μg/ml), 4-hydroperoxy-ifosfamide (IFOS) (I μg/ml), melphalan (MPL) (0.5 μg/ml), carboquone (CQ) (0.1 μg/ml), nimustine (ACNU) (2 μg/ml), ranimustine (MCNU) (2 μg/ml), cisplatinum (CDDP) (0.5 μg/ml) and carboplatin (JM-8) (4 μg/ml) • Antimetabolites: • Methotrexate (MTX) (3 μg/ml), 5-fluoro uracil (5-FU) (10 μg/ml), thioinosine (6-MRP) (3μg/ml) and cytosine arabinoside (CA) (4 μg/ml) • Antibiotics: • Mitomycin C (MMC) (0.2 μg/ml), bleomycin (BLM) (1 μg/ml), peplomycin (PEP) (0.5 μg/ml), chromomycin A3 (TM) (0.01 μg/ml) and neocarsinostatin (NCS) (0.15 μg/ml) • Topoisomerase inhibitors: • Actinomycin D (ACD) (0.01 μg/ml), aclarubicin (ACR) (0.6 μg/ml), adriamycin (ADM) (0.3 μg/ml), daunomycin (DM) (0.6 μg/ml), pirarubicin (THP) (0.3 μg/ml), epirubicin (4′-EPI) (0.4 μg/ml), mitoxantrone (MIT) (0.06 μg/ml), etoposide (VP-16) (3 μg/ml) and camptothecine (CPT-11) (3 μg/ml) • Microtubule Inhibitors: • Vincristine (VCR) (0.1 μg/ml), vinblastin (VLB) (0.1 μg/ml), vindesin (VDS) (0.1 μg/ml) and paclitaxel (TAX) (0.6 μg/ml)
The in vitro concentrations of these drugs were set to about 1/10 of the highest blood concentration when administered at a dose clinically recommended, and differences in the reaction by dose were evaluated for 10 selected drugs (CPM, ACNU, CDDP, PEP, ADM, VP-16, CA, TAX, VCR). The cultured samples of these were mixed in a phosphate buffered saline (pH 7.2)/0.1% Triton X-100/0.1 mg/ml RNase/0.01% sodium azide for 15 minutes and subsequently mixed with 50 g/ml of propidium iodide (Sigma,St.Louis, Mo.) for 5 minutes. The isolated nuclei were analyzed with flow cytometer (FACScan:Becton Dickinson, Mountain view, Calif.). The efficacy of a drug was judged by shifting the nucleus of apoptosis to a low diploid (sub-G1) region and comparing reverse decrease of the peak of the thus incorporated diploid with decrease of untreated control cells. […] Decomposition and condensation of chromatin were judged as a marker of apoptosis and quantitatively evaluated by Fisher's exact test.

Compound: Cc1ncc(CNC(=O)N(CCCl)N=O)c(N)n1 [ACNU, nimustine]
- efficacy of drug in drug sensitivity test [1]: effective
- efficacy of drug in drug sensitivity test [2]: effective

Compound: O=P1(N(CCCl)CCCl)NC(OO)CCO1 (stereo not shown) [CPM]
- efficacy of drug in drug sensitivity test [1]: effective
- efficacy of drug in drug sensitivity test [2]: effective

Compound: CC(=O)O[C@H]1C(=O)[C@@]2(C)[C@H]([C@H](OC(=O)c3ccccc3)[C@]3(O)C[C@H](OC(=O)[C@H](O)[C@@H](NC(=O)c4ccccc4)c4ccccc4)C(C)=C1C3(C)C)[C@]1(OC(C)=O)CO[C@@H]1C[C@@H]2O [TAX, paclitaxel]
- efficacy of drug in drug sensitivity test [2]: effective

Compound: CC[C@]1(O)C[C@H]2CN(CCc3c([nH]c4ccccc34)[C@@](C(=O)OC)(c3cc4c(cc3OC)N(C=O)[C@H]3[C@@](O)(C(=O)OC)[C@H](OC(C)=O)[C@]5(CC)C=CCN6CC[C@]43[C@@H]65)C2)C1 [VCR, vincristine]
- efficacy of drug in drug sensitivity test (FIG. 5, example C, tumor located slightly away from normal brain tissue in phylogenetic tree): effective
- drug sensitivity of tumors having sensitivity to ACNU (tumors having sensitivity to ACNU): generally resistant
